From PMC9610943, “Truncated Pleurocidin Derivative with High Pepsin Hydrolysis Resistance to Combat Multidrug-Resistant Pathogens” (Pharmaceutics, 2022)
≈ marks a conversion by molar mass, not a printed value.

Key:
MRSA 1530 = experiment: microbe, parasite or virus in culture; assay type: cell-based, Staphylococcus aureus; settings: Staphylococcus aureus; MRSA 1530; micro-broth dilution CLSI 2018, MHB, 37 °C, 16 to 18 h; read-out: MIC
Experimental: (§1) S. aureus ATCC 29213, E. coli ATCC 25922, S. enteritidis ATCC 13076 and A. baumannii ATCC 19609 were obtained from the American Type Culture Collection (ATCC). The remaining strains used in the experiment were all preserved strains in our laboratory. All strains were cultured in nutrient broth overnight to the logarithmic phase at 37 °C prior to each experiment.
(§2) The MICs of all drugs were determined by micro-broth dilution method according to CLSI 2018 guidelines. Briefly, a single colony of the bacterial strain was transferred to 1 mL of Mueller Hilton broth (MHB) and overnight at 37 °C and then 10 μL were cultured in a new 1 mL medium for 4 to 6 h, and then the bacterial culture at the logarithmic phase was diluted to 1 × 10^6 CFUs/mL. The assay was performed by adding 100 μL of each peptide solution at various concentrations (0.25 to 128 μg/mL) and 100 μL of diluted bacterial culture to different wells of a 96-well microtiter plate (Corning, NY, USA). After incubation at 37 °C for 16 to 18 h and then read its MIC value. MIC value is defined as the lowest drug concentration without visible bacteria.

MRSA T144 = experiment: microbe, parasite or virus in culture; assay type: cell-based, Staphylococcus aureus; settings: Staphylococcus aureus; MRSA T144; micro-broth dilution CLSI 2018, MHB, 37 °C, 16 to 18 h; read-out: MIC
Experimental: as §1, §2

A. baumannii ATCC 19609 = experiment: microbe, parasite or virus in culture; assay type: cell-based; settings: Acinetobacter baumannii, ATCC19609; A. baumannii ATCC 19609; micro-broth dilution CLSI 2018, MHB, 37 °C, 16 to 18 h; read-out: MIC
Experimental: as §1, §2

E. coli 1F28 (tet(X4)) = experiment: microbe, parasite or virus in culture; assay type: cell-based; settings: Escherichia coli; E. coli 1F28 (tet(X4)); micro-broth dilution CLSI 2018, MHB, 37 °C, 16 to 18 h; read-out: MIC
Experimental: as §1, §2

E. coli ATCC 25922 = experiment: microbe, parasite or virus in culture; assay type: cell-based; settings: Escherichia coli, ATCC25922
Experimental: as §1, §2

[1] = system: E. coli B2 (blaNDM-5 + mcr-1); experiment: microbe, parasite or virus in culture; assay type: cell-based; settings: Escherichia coli; E. coli B2 (blaNDM-5 + mcr-1); micro-broth dilution CLSI 2018, MHB, 37 °C, 16 to 18 h; read-out: MIC
Experimental: as §1, §2

E. coli B3-1 (tet(X4)) = experiment: microbe, parasite or virus in culture; assay type: cell-based; settings: Escherichia coli; E. coli B3-1 (tet(X4)); micro-broth dilution CLSI 2018, MHB, 37 °C, 16 to 18 h; read-out: MIC
Experimental: as §1, §2

E. coli C3 (blaNDM-1) = experiment: microbe, parasite or virus in culture; assay type: cell-based; settings: Escherichia coli; E. coli C3 (blaNDM-1); micro-broth dilution CLSI 2018, MHB, 37 °C, 16 to 18 h; read-out: MIC
Experimental: as §1, §2

E. coli CP131 (mcr-3) = experiment: microbe, parasite or virus in culture; assay type: cell-based; settings: Escherichia coli; E. coli CP131 (mcr-3); micro-broth dilution CLSI 2018, MHB, 37 °C, 16 to 18 h; read-out: MIC
Experimental: as §1, §2

E. coli G6 (blaNDM-5) = experiment: microbe, parasite or virus in culture; assay type: cell-based; settings: Escherichia coli; E. coli G6 (blaNDM-5); micro-broth dilution CLSI 2018, MHB, 37 °C, 16 to 18 h; read-out: MIC
Experimental: as §1, §2

E. coli G92 (mcr-1) = experiment: microbe, parasite or virus in culture; assay type: cell-based; settings: Escherichia coli; E. coli G92 (mcr-1); micro-broth dilution CLSI 2018, MHB, 37 °C, 16 to 18 h; read-out: MIC
Experimental: as §1, §2

[2] = system: E. faecalis A4 (VRE, VanA); experiment: microbe, parasite or virus in culture; assay type: cell-based; settings: Enterococcus faecalis, VRE
Experimental: as §1, §2

[3] = system: P. aeruginosa (VIM + tmexCD1-torJ1); experiment: microbe, parasite or virus in culture; assay type: cell-based; settings: Pseudomonas aeruginosa
Experimental: as §1, §2

P. aeruginosa PA14 = experiment: microbe, parasite or virus in culture; assay type: cell-based; settings: Pseudomonas aeruginosa, PA14
Experimental: as §1, §2

[4] = system: S. aureus 215 (cfr + LZD^R); experiment: microbe, parasite or virus in culture; assay type: cell-based; settings: Staphylococcus aureus
Experimental: as §1, §2

S. aureus ATCC 29213 = experiment: microbe, parasite or virus in culture; assay type: cell-based; settings: Staphylococcus aureus, ATCC29213
Experimental: as §1, §2

S. aureus G16 (RIF^R) = experiment: microbe, parasite or virus in culture; assay type: cell-based; settings: Staphylococcus aureus
Experimental: as §1, §2

[5] = system: S. enteritidis ATCC 13076; experiment: microbe, parasite or virus in culture; assay type: cell-based; settings: Salmonella enterica
Experimental: as §1, §2

[6] = system: P. cibarius HNCF44W (blaNDM-1+ tet(X6)); experiment: organism not typed; assay type: cell-based; settings: P. cibarius HNCF44W (blaNDM-1+ tet(X6)); micro-broth dilution CLSI 2018, MHB, 37 °C, 16 to 18 h; read-out: MIC
Experimental: as §1, §2

## CN(C)c1cc(NC(=O)CNC(C)(C)C)c(O)c2c1C[C@H]1C[C@H]3[C@H](N(C)C)C(O)=C(C(N)=O)C(=O)[C@@]3(O)C(O)=C1C2=O [Tig, tigecycline, reference compound]
MRSA 1530
  MIC: 1 µg/mL (≈ 1.71 µM)
MRSA T144
  MIC: 0.25 µg/mL (≈ 0.427 µM)
A. baumannii ATCC 19609
  MIC: 0.25 µg/mL (≈ 0.427 µM)
E. coli 1F28 (tet(X4))
  MIC: 16 µg/mL (≈ 27.3 µM)
E. coli ATCC 25922
  MIC: 0.125 µg/mL (≈ 0.213 µM)
[1]
  MIC: 2 µg/mL
E. coli B3-1 (tet(X4))
  MIC: 32 µg/mL (≈ 54.6 µM)
E. coli C3 (blaNDM-1)
  MIC: 2 µg/mL (≈ 3.41 µM)
E. coli CP131 (mcr-3)
  MIC: 2 µg/mL (≈ 3.41 µM)
E. coli G6 (blaNDM-5)
  MIC: 2 µg/mL (≈ 3.41 µM)
E. coli G92 (mcr-1)
  MIC: 4 µg/mL (≈ 6.83 µM)
[2]
  MIC: < 0.0625 µg/mL
[3]
  MIC: < 0.0625 µg/mL
P. aeruginosa PA14
  MIC: < 0.0625 µg/mL
[4]
  MIC: 0.25 µg/mL (≈ 0.427 µM)
S. aureus ATCC 29213
  MIC: 0.125 µg/mL (≈ 0.213 µM)
S. aureus G16 (RIF^R)
  MIC: < 0.0625 µg/mL
[5]
  MIC: 0.125 µg/mL (≈ 0.213 µM)
[6]
  MIC: 64 µg/mL (≈ 109 µM)
